Results: patent publication US7385086B2 (priority 1997, dated 2008)
≈ marks a conversion by molar mass, not a printed value. Read-outs that look alike come from different tables or passages of the source.

Tests used:
[1] = tested on: M. tuberculosis (strain H37Rv); assay: MIC against M. tuberculosis strain H37Rv; format: cell-based; details: Mycobacterium tuberculosis
M. bovis BCG = assay: microbe, parasite or virus in culture; format: cell-based; details: Mycobacterium tuberculosis variant bovis BCG
M. avium-intracellulare = assay: MIC / growth inhibition against M. avium-intracellulare; format: cell-based, Mycobacterium avium-intracellulare
[2] = tested on: mycolic acid synthesis in M. avium-intracellulare; assay: Metabolic labeling, two-dimensional TLC of mycolic acids, M. avium-intracellulare; format: cell-based, Mycobacterium avium-intracellulare; details: M. avium-intracellulare cultures treated with 12.5 μg/ml
[3] = tested on: mycolic acid synthesis in M. bovis BCG; format: cell-based, Mycobacterium bovis; details: M. bovis BCG in the presence of III-50
M. bovis BCG cell wall = format: cell-based, Mycobacterium bovis; details: dividing M. bovis BCG in the presence of III-50
[4] = M. tuberculosis strain H37Rv, in vitro, read-out: MIC MTB
[5] = M. avium-intracellulare, routinely isoniazid resistant
[6] = Mycobacterium avium-intracellulare, M. avium-intracellulare, in vitro, read-out: MIC MAI

CCCCCCCCCCS(=O)(=O)C=CC(=O)OC (mixture of isomers) [JRG-I-31(mixture of cisand trans)]
MIC [1, 4]: 50 µg/mL

CCCCCCCCS(=O)(=O)CC(N)=O [HIII-50, n-Octanesulphonylacetamide]
MIC ([1]; H37RV): 6.5 µg/mL (≈ 27.6 µM)
MIC [1, 4]: 6.25 µg/mL (≈ 26.6 µM)
MIC (M. bovis BCG): 6.25 µg/mL (≈ 26.6 µM)
MIC (M. bovis BCG; read-out: MIC BCG): 6.25 µg/mL (≈ 26.6 µM)
growth inhibition (M. avium-intracellulare; [5]): inhibits
MIC (M. avium-intracellulare; [6]): 25 µg/mL (≈ 106 µM)
mycolic acids by phosphorimage of 2D TLC [2]: undetectable
mycolic acids by phosphorimage of 2D TLC [3]: significantly reduced
cell wall morphology in electron micrographs (M. bovis BCG cell wall): disruption of the cell wall

CCCCCCCCCCS(=O)(=O)/C=C\C(N)=O [JRG-I-89-1]
MIC [1, 4]: 25 µg/mL (≈ 90.8 µM)

CCCCCCCCCCS(=O)(=O)CC(N)=O [SI-73]
MIC ([1]; H37RV): 3.12 µg/mL (≈ 11.8 µM)
MIC [1, 4]: 3.12 µg/mL (≈ 11.8 µM)
MIC (M. avium-intracellulare; [6]): 12.5 µg/mL (≈ 47.5 µM)
MIC (M. avium-intracellulare; dose-response curves, M. avium-intracellular): 12.50 µg/mL (≈ 47.5 µM)

CCCCCCCCCCS(=O)(=O)C=CC(N)=O [JRG-I-89-3]
MIC [1, 4]: 6.25 µg/mL (≈ 22.7 µM)

CCCCCCCC[S+]([O-])CC(=O)OCc1ccccc1 (stereo not shown) [HIII-206a]
MIC [1, 4]: 6.25 µg/mL (≈ 20.1 µM)

CCCCCCCCCCS(=O)(=O)CCC(N)=O [DI-59]
MIC [1, 4]: > 25 µg/mL

CCCCCCCCS(=O)(=O)NCC(=O)O [HIII-56]
MIC [1, 4]: > 25 µg/mL
MIC (M. bovis BCG; read-out: MIC BCG): > 25 µg/mL

CCCCCCCCCCS(=O)(=O)CC(=O)NCC(O)CO (stereo not shown) [SI-48]
MIC [1, 4]: > 25 µg/mL

CC(C)CCCC(C)CCS(=O)(=O)CC(N)=O (stereo not shown) [SI-52]
MIC [1, 4]: 6.25 µg/mL (≈ 23.7 µM)

CCCCCCCCCCS(=O)(=O)/C=C/C(=O)OC [JRG-I-31]
melting point: 62 to 63 °C

NNC(=O)c1ccncc1 [isoniazid, reference compound]
isoniazid resistance level (M. avium-intracellulare; [5]): > 2.5 µg/mL

CCCCCCCCCCS(=O)(=O)CC(=O)NCCO [SI-45]
MIC [1, 4]: 12.5 µg/mL (≈ 40.7 µM)
MIC (M. bovis BCG; read-out: MIC BCG): 25 µg/mL (≈ 81.3 µM)

CCCCCCCCCCS(=O)(=O)/C=C/C(=O)O [JRG-I-43]
MIC [1, 4]: 50 µg/mL (≈ 181 µM)

CCCCCCCCCCS(=O)(=O)/C=C/C(N)=O [JRG-I-89-2]
MIC [1, 4]: 12.5 µg/mL (≈ 45.4 µM)

CCCCCCCCCC[S+]([O-])CC(N)=O (stereo not shown) [SI-46]
MIC [1, 4]: 6.25 µg/mL (≈ 25.3 µM)

CCCCCCCC[S+]([O-])CC(=O)OC (stereo not shown) [HIII-302]
MIC [1, 4]: > 25 µg/mL

CCCCCCCCS(=O)(=O)CC(=O)OCc1ccccc1 [HIII-206b]
MIC [1, 4]: 12.5 µg/mL (≈ 38.3 µM)
